Test results published in US9695155B2, “Herbicidal substituted pyrimidinyloxy benzene compounds” (E. I. DU PONT DE NEMOURS AND COMPANY, priority 2013, dated 2017).

Columns and labels:
[1] = test system: sedge, umbrella; assay: Test B flooded paddy test; type: in vivo, Cyperus difformis; settings: Flood, 250 g ai/ha; 0 to 100 scale where 0 is no effect and 100 is complete control
In short: (§1)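 Flooded to 3 cm at the 2-leaf stage, pots received compound through the paddy water and were kept at that depth under greenhouse conditions. After 13–15 days, effect was rated by eye relative to controls, 0 = none and 100 = complete control.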

[2] = test system: giant foxtail; assay: Test A postemergence; type: in vivo, Setaria faberii
In short: (§2)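 Compounds in non-phytotoxic solvent with surfactant applied as soil spray preemergence, or postemergence to plants 2-10 cm at one- to two-leaf stage, in loam/sand. After approximately 10 days in greenhouse, injury rated visually versus untreated controls, 0 (no effect) to 100 (complete control).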

[3] = test system: giant foxtail; assay: Test A preemergence; type: in vivo, Setaria faberii; settings: for Plant response rating, Foxtail, Giant: 125 g ai/ha, 0 to 100 scale where 0 is no effect and 100 is complete control; for Foxtail, Giant plant response rating: 500 g ai/ha, 0 to 100 scale, 0 no effect, 100 complete control, approx. 10 days
In short: as §2

[4] = test system: barnyardgrass; assay: Test B flooded paddy test; type: in vivo, Echinochloa crus-galli; settings: Flood, 250 g ai/ha; 0 to 100 scale where 0 is no effect and 100 is complete control
In short: as §1

[5] = test system: velvetleaf; assay: Test A postemergence; type: in vivo, Abutilon theophrasti
In short: as §2

[6] = test system: Heteranthera limosa; assay: Test B flooded paddy test; type: in vivo; settings: Flood, 250 g ai/ha; 0 to 100 scale where 0 is no effect and 100 is complete control
In short: as §1

[7] = test system: wheat; assay: Test A postemergence; type: in vivo, Triticum aestivum
In short: as §2

[8] = test system: large (Lg) crabgrass; assay: Test A postemergence; type: in vivo, Digitaria sanguinalis
In short: as §2

[9] = test system: morningglory; assay: Test A preemergence; type: in vivo, Ipomoea spp.; settings: for Plant response rating, Morningglory: 125 g ai/ha, 0 to 100 scale where 0 is no effect and 100 is complete control; for Morningglory plant response rating: 500 g ai/ha, 0 to 100 scale, 0 no effect, 100 complete control, approx. 10 days
In short: as §2

[10] = test system: morningglory; assay: Test A postemergence; type: in vivo, Ipomoea spp.
In short: as §2

[11] = test system: pigweed; assay: Test A postemergence; type: in vivo, Amaranthus retroflexus
In short: as §2

[12] = test system: corn; assay: Test A preemergence; type: in vivo, Zea mays; settings: for Plant response rating, Corn: 125 g ai/ha, 0 to 100 scale where 0 is no effect and 100 is complete control; for Corn plant response rating: 500 g ai/ha, 0 to 100 scale, 0 no effect, 100 complete control, approx. 10 days
In short: as §2

[13] = test system: wheat; assay: Test A preemergence; type: in vivo, Triticum aestivum; settings: for Plant response rating, Wheat: 125 g ai/ha, 0 to 100 scale where 0 is no effect and 100 is complete control; for Wheat plant response rating: 500 g ai/ha, 0 to 100 scale, 0 no effect, 100 complete control, approx. 10 days
In short: as §2

[14] = test system: large (Lg) crabgrass; assay: Test A preemergence; type: in vivo, Digitaria sanguinalis; settings: for Plant response rating, Crabgrass, Large: 125 g ai/ha, 0 to 100 scale where 0 is no effect and 100 is complete control; for Crabgrass, Large plant response rating: 500 g ai/ha, 0 to 100 scale, 0 no effect, 100 complete control, approx. 10 days
In short: as §2

[15] = test system: rice; assay: Test B flooded paddy test; type: in vivo, Oryza sativa; settings: Flood, 250 g ai/ha; 0 to 100 scale where 0 is no effect and 100 is complete control
In short: as §1

[16] = test system: corn; assay: Test A postemergence; type: in vivo, Zea mays
In short: as §2

[17] = test system: velvetleaf; assay: Test A preemergence; type: in vivo, Abutilon theophrasti; settings: for Plant response rating, Velvetleaf: 125 g ai/ha, 0 to 100 scale where 0 is no effect and 100 is complete control; for Velvetleaf plant response rating: 500 g ai/ha, 0 to 100 scale, 0 no effect, 100 complete control, approx. 10 days
In short: as §2

[18] = test system: barnyardgrass; assay: Test A postemergence; type: in vivo, Echinochloa crus-galli
In short: as §2

[19] = test system: barnyardgrass; assay: Test A preemergence; type: in vivo, Echinochloa crus-galli; settings: for Plant response rating, Barnyardgrass: 125 g ai/ha, 0 to 100 scale where 0 is no effect and 100 is complete control; for Barnyardgrass plant response rating: 500 g ai/ha, 0 to 100 scale, 0 no effect, 100 complete control, approx. 10 days
In short: as §2

[20] = test system: pigweed; assay: Test A preemergence; type: in vivo, Amaranthus retroflexus; settings: for Plant response rating, Pigweed: 125 g ai/ha, 0 to 100 scale where 0 is no effect and 100 is complete control; for Pigweed plant response rating: 500 g ai/ha, 0 to 100 scale, 0 no effect, 100 complete control, approx. 10 days
In short: as §2

[21] = 125 g ai/ha, 0 to 100 scale where 0 is no effect and 100 is complete control
[22] = 500 g ai/ha, 0 to 100 scale, 0 no effect, 100 complete control

Compound	Plant response rating, Sedge, Umbrella [1]	Plant response rating, Foxtail, Giant [2, 21]	Plant response rating, Foxtail, Giant [2, 22]	Plant response rating, Foxtail, Giant [3]	Foxtail, Giant plant response rating [3]	Plant response rating, Barnyardgrass [4]	Plant response rating, Velvetleaf [5, 21]	Plant response rating, Velvetleaf [5, 22]	Plant response rating, Ducksalad [6]	Plant response rating, Wheat [7, 21]	Plant response rating, Wheat [7, 22]	Plant response rating, Crabgrass, Large [8, 21]	Plant response rating, Crabgrass, Large [8, 22]	Plant response rating, Morningglory [9]	Morningglory plant response rating [9]	Plant response rating, Morningglory [10, 21]	Plant response rating, Morningglory [10, 22]	Plant response rating, Pigweed [11, 21]	Plant response rating, Pigweed [11, 22]	Plant response rating, Corn [12]	further results
FC(F)(F)c1ccc(Oc2ncc(Cl)cn2)c(-n2cc(Br)cn2)c1 [Compound 48]	0	0	20	10	50	0	0	10	0	0	0	10	20	0	0	20	30	20	50	0	Corn plant response rating [12]: 0; Plant response rating, Wheat [13]: 0; Wheat plant response rating [13]: 0; Plant response rating, Crabgrass, Large [14]: 50; Crabgrass, Large plant response rating [14]: 80; Plant response rating, Rice [15]: 0; Plant response rating, Corn [16, 21]: 0; Plant response rating, Corn [16, 22]: 0; Plant response rating, Velvetleaf [17]: 0; Velvetleaf plant response rating [17]: 0; Plant response rating, Barnyardgrass [18, 21]: 0; Plant response rating, Barnyardgrass [18, 22]: 10; Plant response rating, Barnyardgrass [19]: 0; Barnyardgrass plant response rating [19]: 0; Plant response rating, Pigweed [20]: 0; Pigweed plant response rating [20]: 0
Clc1cnc(Oc2cc(Cl)ccc2-n2cccn2)nc1 [Compound 49]	0	0	10	0	10	0	10	30	0	0	0	0	10	0	0	0	20	0	40	0	Corn plant response rating [12]: 0; Plant response rating, Wheat [13]: 0; Wheat plant response rating [13]: 0; Plant response rating, Crabgrass, Large [14]: 0; Crabgrass, Large plant response rating [14]: 20; Plant response rating, Rice [15]: 0; Plant response rating, Corn [16, 21]: 0; Plant response rating, Corn [16, 22]: 0; Plant response rating, Velvetleaf [17]: 0; Velvetleaf plant response rating [17]: 20; Plant response rating, Barnyardgrass [18, 21]: 0; Plant response rating, Barnyardgrass [18, 22]: 10; Plant response rating, Barnyardgrass [19]: 0; Barnyardgrass plant response rating [19]: 0; Plant response rating, Pigweed [20]: 0; Pigweed plant response rating [20]: 0
